Laboratory results as given in patent US10792274B2, “Dehydroacetic acid (DHAA) and derivative for uses in treating cancer” (Emory University, priority 2016, dated 2020).
pKi: −log10 of the molar value. “Also recorded” adds a separate entry of the source.

Key:
hepatomas = details: rats fed 4-(methylamino)azobenzene; cited from earlier work
[1] = test system: SK-MEL-5 cells expressing BRAF V600E; assay: melanoma cell proliferation; assay type: cell-based
[2] = test system: WM-266-4 cells expressing BRAF V600D; assay: melanoma cell proliferation; assay type: cell-based
[3] = test system: A2058 cells expressing BRAF V600E; assay: melanoma cell treatment: proliferation, MEK1/ERK1/2 phosphorylation, BRAF-MEK1 binding; assay type: cell-based, human
[4] = test system: BRAF V600E-expressing human melanoma A375 cells; assay: A375 xenograft in nude mice; assay type: in vivo
BRAF WT-MEK1 binding = BRAF WT-MEK1 binding (Homo sapiens, UniProt P15056); assay: cell-free in vitro coupled protein-protein binding and kinase assay; assay type: biochemical; details: in the presence of acetoacetate
Description: (§1) Whether DHAA inhibits BRAF V600E directly was examined. […] In contrast, DHAA had no effect on BRAF WT-MEK1 binding or MEK1 phosphorylation in a control experiment using purified BRAF WT incubated with MEK1 in the presence of acetoacetate (FIG. 4I left panel). […] This is physiologically consistent with the acetoacetate levels determined as approximately 300 μM in stable HMGCL knockdown A375 and A2058 cells.

BRAF V600E-MEK1 binding = BRAF V600E-MEK1 binding (Homo sapiens, UniProt P15056, V600E); assay: as above; assay type: biochemical
Description: as §1

[5] = test system: Me1-ST parental or control cells expressing BRAF WT or tBRAF; assay: immortalized melanocyte treatment: proliferation, MEK-ERK activation, BRAF-MEK1 binding; assay type: cell-based
[6] = test system: BRAF V600E-expressing human melanoma A2058 cells; assay: A2058 xenograft in nude mice; assay type: in vivo
Description: Xenograft tumor growth and in nude mice inoculated with BRAF V600E-positive human melanoma A2058 fed with normal or high-fat diets followed by intraperitoneal injection with DHAA.

BRAF V600R = BRAF V600R (Homo sapiens, UniProt P15056, V600R); assay: 14C-labeled acetoacetate binding assay; details: in the presence of 300 μM 14C-labeled acetoacetate
Description: (§2) BRAF wild type and mutant proteins were incubated with increasing concentrations of ^14C-labeled acetoacetate.
(§3) A series of radiometric metabolite-protein interaction analyses were performed using ^14C labeled acetoacetate incubated with purified BRAF variants in the presence and absence of DHAA.

BRAF V600D = BRAF V600D (Homo sapiens, UniProt P15056, V600D); assay: 14C-labeled acetoacetate binding assay; details: in the presence of 300 μM 14C-labeled acetoacetate
Description: as §2, §3

[7] = chronic injection of DHAA to nude mice (tolerability); assay type: in vivo
BRAF V600E [8] = molecular target: T1, BRAF V600E (Homo sapiens, UniProt P15056, V600E); assay: 14C-labeled acetoacetate binding assay (radiometric metabolite-protein interaction)
Description: as §2, §3

[9] = test system: Me1-ST cells expressing BRAF V600E; assay: immortalized melanocyte treatment: proliferation, MEK-ERK activation, BRAF-MEK1 binding; assay type: cell-based
[10] = test system: A375 cells expressing BRAF V600E; assay: melanoma cell treatment: proliferation, MEK1/ERK1/2 phosphorylation, BRAF-MEK1 binding; assay type: cell-based, human
FLAG-tagged BRAF V600E = molecular target: T2, FLAG-tagged BRAF V600E (Homo sapiens, UniProt P15056, V600E); assay: cellular thermal shift assay, lysates of transfected 293T cells; assay type: binding; details: 400 μM
T2 construct: FLAG; expressed in transfected cells; host or cells: 293T cells (lysates)
Text: (§4) Whether functional inhibition of acetoacetate would attenuate BRAF V600E tumor growth was examined. Dehydroacetic acid (DHAA) (FIG. 4A) is an inhibitory homologue of acetoacetate.

[11] = serum and tumor metabolite levels and body weight of xenograft mice; assay type: in vivo
BRAF V600E [12] = molecular target: T1, BRAF V600E; assay: BRAF V600E kinase activity (Vmax and Km), MEK1 as substrate; assay type: biochemical
Description: as §1

BRAF V600E [13] = molecular target: T1, BRAF V600E; assay: thermal melt shift assay, purified recombinant protein; assay type: binding
Description: Arrows in the panel indicate melting temperatures at 0 μM (left) and 400 μM (right).
as §4

[14] = co-treatment with DHAA, high-fat diet
[15] = BRAF V600E pre-treated with acetoacetate (300 μM)
[16] = DHAA at 200 μM, acetoacetate at 300 μM
[17] = tumors harvested from xenograft mice

Sequence of BRAF V600E-MEK1 binding (P15056 whole entry V600E): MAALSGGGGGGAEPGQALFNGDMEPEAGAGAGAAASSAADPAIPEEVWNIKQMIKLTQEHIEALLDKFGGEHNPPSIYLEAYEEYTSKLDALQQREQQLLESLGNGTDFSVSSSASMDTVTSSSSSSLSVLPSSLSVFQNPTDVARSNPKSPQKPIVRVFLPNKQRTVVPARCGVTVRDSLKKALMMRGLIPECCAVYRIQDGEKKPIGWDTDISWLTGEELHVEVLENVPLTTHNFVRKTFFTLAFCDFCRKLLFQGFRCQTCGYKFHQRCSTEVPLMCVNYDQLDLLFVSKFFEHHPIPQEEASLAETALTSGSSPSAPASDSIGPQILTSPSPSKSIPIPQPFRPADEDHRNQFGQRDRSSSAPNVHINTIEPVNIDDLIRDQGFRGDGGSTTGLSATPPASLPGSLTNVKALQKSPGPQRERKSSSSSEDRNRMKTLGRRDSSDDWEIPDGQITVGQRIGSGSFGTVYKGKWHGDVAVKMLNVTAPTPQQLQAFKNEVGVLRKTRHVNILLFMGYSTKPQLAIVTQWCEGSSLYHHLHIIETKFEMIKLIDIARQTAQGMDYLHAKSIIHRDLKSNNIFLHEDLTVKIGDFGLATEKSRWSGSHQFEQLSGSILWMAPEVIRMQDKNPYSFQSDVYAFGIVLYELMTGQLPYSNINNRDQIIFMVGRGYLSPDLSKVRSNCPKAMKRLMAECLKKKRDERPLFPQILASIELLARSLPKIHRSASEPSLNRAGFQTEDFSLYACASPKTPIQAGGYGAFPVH
T1 sequence (P15056 whole entry V600E): as above
T2 sequence (P15056 whole entry V600E): as above
Sequence of BRAF WT-MEK1 binding (P15056 whole entry): as the sequence (P15056 whole entry V600E) above, with E600V counted along it
Sequence of BRAF V600D (P15056 whole entry V600D): as the sequence (P15056 whole entry V600E) above, with E600D counted along it
Sequence of BRAF V600R (P15056 whole entry V600R): as the sequence (P15056 whole entry V600E) above, with E600R counted along it

For `CC(=O)c1c(O)oc(C)cc1=O` [DHAA, 3-Acetyl-2-hydroxy-6-methyl-4H-pyran-4-one], the induction of hepatomas (hepatomas) is given as “inhibitory effect”, the cell proliferation [1] is given as “selectively inhibited cell proliferation” and the cell proliferation [2] is given as “selectively inhibited cell proliferation”. For the same molecule, the “BRAF V600E-MEK1 association” value [3] was “selectively inhibited”, the cell proliferation [3] was “selectively inhibited cell proliferation; also recorded: selectively inhibits” and the “phosphorylation of MEK1 and ERK1/2” value [3] was “selectively inhibited phosphorylation of MEK1 and ERK1/2”. The “high-fat diet-dependent enhancement of BRAF V600E-MEK1 binding in tumors” value ([4]; DHAA, high-fat diet) was “significantly attenuated”, the “high-fat diet-dependent enhancement of cell proliferation rates (Ki67) in tumors” value ([4]; DHAA, high-fat diet) was “significantly attenuated” and the “high-fat diet-dependent enhancement of phosphorylation of MEK1 and ERK1/2 in tumors” value ([4]; DHAA, high-fat diet) was “significantly attenuated”. The “high-fat diet-enhanced tumor growth potential” value [4, 14] was “effectively reversed the enhanced tumor growth potential”, the “HMGCL expression in tumors” value ([4]; mouse, in vivo) was “without affecting HMGCL expression” and the “BRAF V600E-MEK1 binding in tumors” value ([4]; single agent) was “reduced binding between BRAF V600E-MEK1”. For the same molecule, the “cell proliferation rates in tumors (Ki67 IHC staining)” value ([4]; single agent) was “reduced cell proliferation rates”, the “phosphorylation of MEK1 and ERK1/2 in tumors” value ([4]; single agent) was “selectively inhibited phosphorylation of MEK1 and ERK1/2” and the “xenograft tumor growth (growth rates, sizes, masses)” value ([4]; single agent, normal diet) was “effectively inhibited xenograft tumor growth rates, sizes and masses”. For the same molecule, the “BRAF WT-MEK1 binding” value (BRAF WT-MEK1 binding) was “had no effect”, the MEK1 phosphorylation (BRAF WT-MEK1 binding) was “had no effect” and the “acetoacetate-enhanced MEK1 binding to BRAF V600E” value (BRAF V600E-MEK1 binding; [15]) was “effectively inhibited”. For the same molecule, the “phosphorylation of V600E-bound MEK1” value (BRAF V600E-MEK1 binding; [15]) was “effectively inhibited”, the “BRAF V600E-MEK1 binding and phosphorylation of MEK1 enhanced by acetoacetate” value (BRAF V600E-MEK1 binding; [16]) was “inhibit BRAF V600E-MEK1 binding and phosphorylation of MEK1” and the BRAF-MEK1 binding [5] was “but not parental or control cells”. The “high-fat diet-dependent enhancement of BRAF V600E-MEK1 binding in tumors” value ([6]; DHAA, high-fat diet) was “significantly attenuated”, the “high-fat diet-dependent enhancement of cell proliferation rates (Ki67) in tumors” value ([6]; DHAA, high-fat diet) was “significantly attenuated” and the “high-fat diet-dependent enhancement of phosphorylation of MEK1 and ERK1/2 in tumors” value ([6]; DHAA, high-fat diet) was “significantly attenuated”. The “high-fat diet-enhanced tumor growth potential” value [6, 14] was “effectively reversed the enhanced tumor growth potential; also recorded: reverses high-fat diet-enhanced BRAF V600E tumor growth”, the “HMGCL expression in tumors” value ([6]; mouse, in vivo) was “without affecting HMGCL expression” and the “BRAF V600E-MEK1 binding in tumors” value ([6]; single agent) was “reduced binding between BRAF V600E-MEK1”. The “cell proliferation rates in tumors (Ki67 IHC staining)” value ([6]; single agent) was “reduced cell proliferation rates”, the “phosphorylation of MEK1 and ERK1/2 in tumors” value ([6]; single agent) was “selectively inhibited phosphorylation of MEK1 and ERK1/2” and the “xenograft tumor growth (growth rates, sizes, masses)” value ([6]; single agent, normal diet) was “effectively inhibited xenograft tumor growth rates, sizes and masses”. The pKi (BRAF V600R) was roughly 4.04, the pKi (BRAF V600D) was roughly 4.06 and the “histopathological analyses and weights of diverse organs” value ([7]; 200 mg/kg/day intraperitoneally, ~4 weeks) was “did not cause notable differences”. The “components of the gut microbiota” value ([7]; chronic treatment) was “altered proportions but no loss of any components”, the “effect on the mouse gut microbiome” value ([7]; chronic treatment) was “had no obvious effect” and the “total DNA amount extracted from bacteria in mouse feces” value ([7]; chronic treatment) was “unaltered total DNA amount”. For the same molecule, the well-tolerated dose ([7]; intraperitoneally, ~4 weeks) was 200 mg/kg/day, the toxicity in vivo ([7]; mouse, in vivo) was “does not cause obvious toxicity in vivo” and the “complete blood counts (CBC) or hematopoietic properties” value ([7]; representative A375 xenograft mice, compared to the water-treated group) was “did not alter”. For the same molecule, the “competition with acetoacetate for BRAF V600E binding” value (BRAF V600E [8]; BRAF V600E pre-treated with 14C-labeled acetoacetate, increasing concentrations of DHAA) was “competed with acetoacetate for BRAF V600E binding in a dose-dependent manner”, the “block of acetoacetate binding by pre-treatment” value (BRAF V600E [8]; DHAA 200 μM pre-treatment, 14C-labeled acetoacetate up to 400 μM) was “sufficient to block acetoacetate binding” and the “competition with acetoacetate for BRAF V600E binding” value (BRAF V600E [8]; [16]) was “sufficient to compete”. For the same molecule, the pKi (BRAF V600E [8]; in the presence of 300 μM 14C-labeled acetoacetate) was roughly 4.06, the “binding ability of BRAF V600E mutant forms to acetoacetate” value (BRAF V600E [8]; treatment with DHAA, BRAF V600E and tBRAF V600E) was “significant decrease in binding ability” and the “BRAF V600E-MEK1 binding” value [9] was “selectively inhibited”. For the same molecule, the MEK-ERK activation [9] was “selectively inhibited”, the cell proliferation [9] was “selectively inhibited” and the “BRAF V600E-MEK1 association” value [10] was “selectively inhibited”. The cell proliferation [10] was “selectively inhibited cell proliferation; also recorded: selectively inhibits”, the “phosphorylation of MEK1 and ERK1/2” value [10] was “selectively inhibited phosphorylation of MEK1 and ERK1/2” and the “affinity for BRAF V600E relative to acetoacetate” value (FLAG-tagged BRAF V600E) was “higher affinity than acetoacetate”. The “binding in cellular thermal shift assay” value (FLAG-tagged BRAF V600E) was “bound only to BRAF V600E”, the body weight ([11]; effect of treatment) was “did not affect body weight” and the serum cholesterol levels ([11]; effect of treatment) was “did not affect; also recorded: had no effect”. For the same molecule, the serum glucose levels ([11]; effect of treatment) was “did not affect; also recorded: had no effect”, the “serum levels of 3HB (β-hydroxybutyrate)” value ([11]; effect of treatment) was “did not affect; also recorded: had no effect” and the “serum levels of acetoacetate” value ([11]; effect of treatment) was “had no effect”. The “acetoacetate levels in tumors” value [11, 17] was “did not affect”, the “β-hydroxybutyrate levels in tumors” value [11, 17] was “did not affect” and the “activating effect of acetoacetate on BRAF V600E (increased Vmax, decreased Km)” value (BRAF V600E [12]; in the presence of acetoacetate (300 μM)) was “effectively reversed the activating effect of acetoacetate”. The “BRAF V600E kinase activity (Vmax and Km)” value (BRAF V600E [12]; increasing concentrations of DHAA alone) was “did not affect BRAF V600E kinase activity” and the “binding in thermal melt shift assay” value (BRAF V600E [13]) was “directly binds”.
